Test results taken from patent US8680120B2, “Indole derivative or pharmaceutically acceptable salt thereof” (Kissei Pharmaceutical Co., Ltd., priority 2009, dated 2014).

What was measured:
[1] = biological target: rat EP1 receptor (Rattus norvegicus (Rat), UniProt P70597); assay: Test for confirmation of EP1 receptor antagonism: inhibition of the prostaglandin E2-induced increase in intracellular calcium concentration in rat EP1 receptor-expressing COS-1 cells; assay type: cell-based; conditions: Method A: Fluo-4 NW Calcium Assay Kit, FlexStation; prostaglandin E2 10 nM; rat EP1 receptor-expressing COS-1 cells
Chain of rat EP1 receptor (P70597 whole entry): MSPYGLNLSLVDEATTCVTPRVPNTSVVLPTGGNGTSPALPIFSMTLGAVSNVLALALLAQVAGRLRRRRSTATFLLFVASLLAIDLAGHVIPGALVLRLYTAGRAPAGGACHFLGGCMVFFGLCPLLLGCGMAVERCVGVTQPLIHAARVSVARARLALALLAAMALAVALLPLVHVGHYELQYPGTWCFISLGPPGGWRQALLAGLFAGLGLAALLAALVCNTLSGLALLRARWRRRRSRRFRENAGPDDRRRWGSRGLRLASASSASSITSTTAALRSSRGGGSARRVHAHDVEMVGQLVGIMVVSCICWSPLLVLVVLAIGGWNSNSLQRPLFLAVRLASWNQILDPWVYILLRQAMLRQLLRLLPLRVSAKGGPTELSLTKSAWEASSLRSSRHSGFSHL
Experimental: (1) Preparation of Rat EP1 Expression Vector
Using Rat Kidney BD Marathon-Ready cDNA (Nippon Becton Dickinson Company, Ltd.) as a template, a forward primer shown in SEQ ID NO. 1, and a reverse primer shown in SEQ ID NO. 2, a first run of PCR was carried out using KOD-Plus-Ver 2.0 (Toyobo Co., Ltd.). Further, using this amplification product as a template, a forward primer shown in SEQ ID NO. 3, and a reverse primer shown in SEQ ID NO. 4, a second run of PCR was carried out in the same manner. The amplification product obtained by the second run of PCR was incorporated into a vector (pcDNA3.1 D/V5-His-TOPO (registered trademark), Invitrogen Japan K. K.). By a conventional method, the vector containing this amplification product was introduced to E. coli (One Shot TOP10 Competent Cells, Invitrogen Corporation) to transform. This transformed E. coli was cultured in an LB agar medium for one day. After the culture, colonies were selected and cultured in an LB liquid medium containing 50 μg/mL of ampicillin. After the culture, the vector was purified using a QIAprep Spin Miniprep Kit (Qiagen K. K.). The base sequence of the insertion site of this vector (SEQ ID NO. 5) was compared with the rat EP1 base sequence (Ptger1) registered as an accession number NM_013100 in well-known database (NCBI), and as a result, they all matched except for a single base. Further, the amino acid sequence translated by the base sequence completely matched the amino acid sequence of the rat EP1 receptor registered as an NCBI accession number NP_037232. Therefore, it was confirmed that the cloned gene sequence was a base sequence of the rat EP1 receptor and the obtained amino acid sequence was that of the rat EP1 receptor. The pcDNA3.1 D/V5-His-TOPO (registered trademark) to which the nucleic acid shown in SEQ ID NO. 5 had been inserted was taken as a rat EP1-expressing vector.
(2) Preparation of Rat EP1 Receptor-Expressing Cells
COS-1 cells (Dainippon Sumitomo Pharma Co., Ltd.) were cultured until it reached confluence in an incubator at 37° C. under a 5% CO2 gas condition, using a D-MEM liquid medium (high glucose and L-glutamine contained, Invitrogen Corporation) to which a penicillin-streptomycin solution (Invitrogen Corporation, final concentration: 100 U/mL as benzylpenicillin; 100 μg/mL as streptomycin) as an antibiotic, MEM nonessential amino acids (Invitrogen Corporation, final Concentration: 0.1 mM), and fetal calf serum (Sanko Junyaku Co., Ltd., final concentration: 10%) were added.
The cells that had reached confluence were stripped with 0.05% trypsin/0.53 mM EDTA 4Na (Invitrogen Japan K. K.) and resuspended in the liquid medium. The resuspended cells were diluted and cultured in the liquid medium at a spread ratio from 1:4 to 1:8.
The cells that had reached confluence were stripped with 0.05% trypsin/0.53 mM EDTA.4Na, and resuspended in a D-MEM liquid medium (high glucose and L-glutamine contained, Invitrogen Corporation) to which an MEM nonessential amino acid (final concentration: 0.1 mM) and fetal calf serum (final concentration: 10%) were added. In each well of a Poly D-lysine-coated 96-well microplate (BD BioCoat (registered trademark), Nippon Becton Dickinson Company, Ltd.), this resuspended cell suspension culture was prepared to be 5×10^4 cells/well in 100 μL of the liquid medium, and seeded thereon. After seeding, the cells were cultured in an incubator at 37° C. under a 5% CO2 gas condition. At a point when the cells for introduction of a rat EP1-expressing vector were adhered (about 2 hours after seeding), introduction of the rat EP1-expressing vector was carried out in the following order.
For introduction of the rat EP1-expressing vector, Lipofectamine 2000 (Invitrogen Japan K. K.) was used. […]

[2] = system: Female SD rats; assay: Inhibitory effect of compound on sulprostone-induced bladder contraction; assay type: in vivo, rat; conditions: sulprostone 0.3 mg/kg subcutaneously, urethane-anesthetized female SD rats; for Bladder Contraction Inhibition Rate (%) 15 Minutes: 15 minutes after test agent 1.0 mg/kg intravenously; for Bladder Contraction Inhibition Rate (%) 60 Minutes: 60 minutes after test agent 1.0 mg/kg intravenously
Experimental: Female SD rats were used. Under urethane anesthesia (1.25 g/kg, administered subcutaneously), a tracheal cannula (Size 8, HIBIKI) and a femoral vein cannula for administration (23 G needle-equipped PE50) were inserted thereinto. The bladder cannula (PE50) was inserted from the bladder apex. The bladder cannula was connected to a three-way stopcock, and then, one was connected to a pressure transducer and the other was connected to a syringe filled with saline. Saline was injected to the bladder at an injection rate of 3.6 mL/hour and the bladder contraction pressure was recorded at the time of injection with a recorder (RECTI-HORITZ-8K, NEC Corporation). After 10 minutes from stabilization of the bladder contraction pressure during urination, sulprostone was administered subcutaneously (0.3 mg/kg). Then, at the time point when the bladder contraction pressure became constant, a test agent was administered intravenously (1.0 mg/kg). An average bladder contraction pressure during the 10 minutes period before administration of sulprostone was taken as a baseline (0%). Further, an average bladder contraction pressure during the 10 minutes period before administration of the test agent was taken as a maximum bladder contraction pressure (100%). The average bladder contraction pressures were measured during 5 minutes before and after at 15 minutes and 60 minutes from administration of the test agent. The ratio of this measured value to the maximum bladder contraction pressure was calculated by the following equation and taken as an average bladder contraction rate after administration of the test agent: (Average Bladder Contraction Rate after Administration of Test Agent (%))=(Average Bladder Contraction Pressure after Administration of Test Agent)/(Maximum Bladder Contraction Pressure). In addition, the difference between the maximum bladder contraction rate (100%) and the average bladder contraction rate (%) after administration of the test agent was calculated by the following equation and taken as a bladder contraction inhibition rate of the test agent: (Bladder Contraction Inhibition Rate)=100%−(Average Bladder Contraction Rate after Administration of Test Agent (%)).

Structure (SMILES) | IC50 [1] | Bladder Contraction Inhibition Rate (%) 15 Minutes [2] | Bladder Contraction Inhibition Rate (%) 60 Minutes [2]
COc1ccc2c(c1)cc(-c1ccccc1)n2Cc1cccc(C(=O)O)n1 [Example 9-21, 6-(5-methoxy-2-phenylindol-1-ylmethyl)pyridine-2-carboxylic acid] | 13 nM | 94.5% | 82.8%
COc1cc2cc(-c3ccccc3)n(Cc3cccc(C(=O)O)n3)c2cc1F [Example 16-15] | – | 85.0% | 54.9%
